# Where two headings read alike, the source gives them in different places.
# Key:
# [1] = Randomized, double-blind, placebo-controlled multiple escalating dose study, plasma PK of Compound 1 oral suspension (Cohorts 1-3); details: for Vd/F: Vz/F
# Method: (§2) Healthy subjects aged 18 to 55 years were treated with an oral suspension of Compound 1 to study the safety, tolerability, pharmacokinetics and pharmacodynamics of Compound 1 in healthy subjects.
# (§3) The study was a randomized, double-blind, placebo-controlled multiple escalating dose study comprised of 3 cohorts that each received an oral suspension. Each cohort consisted of two groups: one group treated with Compound 1 and another treated with placebo. In each cohort, the ratio of Compound 1-treated subjects to placebo-treated subjects was 3:1.
# (§4) The Compound 1-treated subjects of Cohort 1 were treated with 15.0 mg of Compound 1 once per day (QD). The Compound 1-treated subjects of Cohort 2 were treated with 30.0 mg of Compound 1 QD. The Compound 1-treated subjects of Cohort 3 were treated with 60.0 mg of Compound 1 QD.
# (§5) Patients in each cohort were treated with Compound 1 for 14 consecutive days, unless dosing was halted by the Safety Review Committee (SRC). The dosing of subjects in each of the cohorts was staggered with the decision to dose escalate based on SRC review of a minimum of 14 days of observation of safety and tolerability data and review of the available plasma PK data from the preceding cohort(s). Thus, dose escalation was predicated on tolerability of the prior cohorts.
# (§6) Compound 1 was administered under fasted conditions (no food or drink, except water, for at least 10 hours prior to dosing). Immediately after administration of Compound 1, the subject was be administered 240 mL water. No additional fluid intake was allowed until 1 hour after Compound 1 administration.
# (§7) Cohort 1 subjects received a single 15.0 mg dose of a Compound 1 suspension on the morning of Days 1-14. Cohort 2 subjects received a single 30.0 mg dose of a Compound 1 suspension on the morning of Days 1-14. Cohort 3 subjects received a single 60.0 mg dose of a Compound 1 suspension on the morning of Days 1-14. For all cohorts, the last treatment was administered on the morning of Day 14.
# (§8) Data were obtained from the blood plasma samples collected from each cohort according to the schedule provided.
# (§9) Plasma samples were analyzed to determine Compound 1 concentrations using a validated assay method. Pharmacokinetic variables (including but not limited to Cmax, Tmax and AUC(0-last)), were calculated using non-compartmental analysis. PK parameters for Compound 1 were derived from the plasma concentration data using non-compartmental analysis with Phoenix™ WinNonlin® v 8.0 (Pharsight Corporation, USA).
# (§10) For each cohort, blood samples were collected on Days 1, 2, 3, 4, 5, 6 and 14 at the following time points: Day 1 at pre-dose (0 hour), 0.25, 0.5, 0.75, 1, 1.5, 2, 2.5, 3, 4, 6, 8, 12, 16 h post-dose; Day 2 at pre-dose (24 h), Day 3 at pre-dose (48 h), Day 4 at pre-dose (72 h), Day 5 at pre-dose (96 h), Day 6 at pre-dose (120 h); Day 14 at pre-dose 0.25, 0.5, 0.75, 1, 1.5, 2, 2.5, 3, 4, 6, 8, 12, 16, 24, 36, 48, and 72 hours. Trough level blood samples were collected on Days 2, 3, 4, 5, 6 and 14, prior to the morning dose administrations.
# (§11) Descriptive statistics were calculated for plasma and urine PK parameter and concentration data, and summarized by study day and time point. Arithmetic means, coefficient of variation (CV), standard deviation, median, minimum, and maximum values, and number of observations were calculated for all PK parameters and trough concentration data. Except for Tmax, the geometric mean, geometric standard deviation, and geometric CV were provided for all PK parameter and concentration data.
# [2] = in vivo, po
# Method: (§12) The Day 1 dose was administered after a minimum of 10 hour fasting. No additional fluid intake was allowed until 1 hour after drug administration. A standard meal was given at least 4 hours post-dose. The Day 5 dose was administered following a high-fat, high calorie meal. Participants remained at the clinical site for a total of 8 days to complete PK sampling after the second dose.
# (§13) Pharmacokinetic variables (including but not limited to Cmax, Tmax and AUC(0-last)), were calculated using non-compartmental analysis.
# (§14) Urine (Cohort 4): No urine analysis was conducted in Cohort 4.
# [3] = Safety/tolerability in MDD patients, Part A; assay type: in vivo, human; details: 80 mg Cohort, compared to the 45 mg Cohort
# Method: (§1) In Part A, participants were administered daily doses of Compound 1 (45 mg Cohort and 80 mg Cohort) at 4 PM on Day 1 and qHS on all other study days for 7 days inpatient followed by 7 days outpatient (with subsequent Cohorts receiving up to 120 mg qHS). Participants checked into the clinic on Day 1. During this period the following assessments were performed: adverse event assessments, vital signs, physical examinations, blood and urine samples for safety assessments, ECGs, C-SSRS assessments, blood samples for PK, and efficacy assessments (HAM-D, MADRS, HAM-A, CGI [CGI-S and CGI-I], PSQI, and SDQ). Baseline assessments occurred on Day 1 prior to administration of study drug. On Day 8, prior to discharge, participants were supplied with sufficient Compound 1 to complete 7 days of dosing.
# Adverse events (AEs) will be monitored throughout the duration of the study.
# [4] = system: patients with severe major depressive disorder (MDD); assay: Open-label study in severe MDD, Part A, HAM-D efficacy; assay type: in vivo, human
# Method: The study is an open-label, study comprised of two dosing periods, Part A and Part B, during which patients were treated with an oral suspension of Compound 1. Part A was an open-label assessment of two dose levels of Compound 1 (45 mg qHS Cohort 1 and 80 mg qHS Cohort, i.e., once daily administration at bedtime) administered for 7 days inpatient followed by 7 days outpatient. PRAX-114 was administered at 4 PM on Day 1 in order to collect post-dosing PK samples that could not be collected with qHS dosing.
# as §1
# Patients were administered daily doses of Compound 1 for 7 days inpatient followed by 7 days outpatient.
# In the 45 mg Cohort, patients were administered once daily dose of 45 mg of Compound 1 at bedtime for 7 days inpatient followed by once daily dose of 45 mg of Compound 1 at bedtime for 7 days outpatient.
# In the 80 mg Cohort, patients were administered once daily dose of 80 mg of Compound 1 at bedtime for 7 days inpatient followed by once daily dose of 80 mg of Compound 1 at bedtime for 7 days outpatient.
# In Part A, HAM-D, MADRS, HAM-A, CGI-S, and CGI-I values were collected in the morning of Days 1, 2, 3, 4, 5, 6, 7, 8, 15, 21 and 28. PSQI and SDQ values will be collected on Days 1, 8, 15, 21 and 28. Part B: In Part B, HAM-D, MADRS, HAM-A, CGI-S, CGI-I, PSQI and SDQ values will be collected on the days described for Part A.
# HAM-D Response was defined as a reduction from baseline of ≥50% in total HAM-D score. HAM-D remission was defined as a total HAM-D score of ≤7.
# For both parts of the clinical trial, the HAM-D total score and change from baseline values will be summarized by treatment group and time point. In addition, the change from baseline in HAM-D total score will also be analyzed using paired t-tests or similar methods. The null hypothesis of this test is that the mean difference in HAM-D total score between paired observations (i.e., pre- and post-treatment) is zero. Similar analysis methods will be used for all secondary and exploratory efficacy variables.
# [5] = Food Effect Cohort (Cohort 4), single 30 mg dose fasted vs high-fat, high calorie meal, plasma PK; details: human, po, t 1/2, Cohort 4, single 30 mg oral, n = 10, Mean (SD)
# Method: as §12, §13, §14
# [6] = human, in vivo
# Method: as §2, §3, §4, §5, §6, §7, §8, §9, §10, §11
# clinical = details: human, in vivo; for AUC(0-inf): AUCinf
# Method: as §2, §3, §4, §5, §6, §7, §8, §9, §10, §11
# [7] = Cohort 1, 15.0 mg QD oral, Day 14, Mean
# [8] = Cohort 2, 30.0 mg QD oral, Day 14, Mean
smiles,measurement,setting,value
"COC[C@@]1(O)CC[C@@]2(C)[C@@H](CC[C@@H]3[C@@H]2CC[C@]2(C)[C@@H](C(=O)Cn4ccnc4)CC[C@@H]32)C1 [Compound 1, 3α-Hydroxy-3β-methoxymethyl-21-(1′-imidazolyl)-5α-pregnan-20-one]",CLss/F,"[1]; Cohort 1, 15.0 mg QD oral, Day 14, Geo Mean",30.497 L/h
same,CLss/F,[1]; [7],31.415 L/h
same,t1/2,[1]; [7],14.772 h
same,CLss/F,"[1]; Cohort 1, 15.0 mg QD oral, Day 14, Median",30.41 L/h
same,CLss/F,"[1]; Cohort 2, 30.0 mg QD oral, Day 14, Geo Mean",30.178 L/h
same,CLss/F,[1]; [8],30.949 L/h
same,t1/2,[1]; [8],12.701 h
same,CLss/F,"[1]; Cohort 2, 30.0 mg QD oral, Day 14, Median",30.12 L/h
same,CLss/F,"[1]; Cohort 3, 60.0 mg QD oral, Day 14, Geo Mean",30.398 L/h
same,CLss/F,"[1]; Cohort 3, 60.0 mg QD oral, Day 14, Mean",32.142 L/h
same,CLss/F,"[1]; Cohort 3, 60.0 mg QD oral, Day 14, Median",28.45 L/h
same,Vd/F,"[1]; human, plasma, po, 15 mg, Cohort 1, 15.0 mg QD oral, Day 14, Geo Mean",643 L
same,Vd/F,"[1]; human, plasma, po, 15 mg, Cohort 1, 15.0 mg QD oral, Day 14, Mean",655 L
same,Vd/F,"[1]; human, plasma, po, 15 mg, Cohort 1, 15.0 mg QD oral, Day 14, Median",657 L
same,half-life,"[1]; human, plasma, po, 15 mg, t1/2, Cohort 1, 15.0 mg QD oral, Day 14, Geo Mean",14.6 h
same,half-life,"[1]; human, plasma, po, 15 mg, t1/2, Cohort 1, 15.0 mg QD oral, Day 14, Mean",14.8 ± 2.26 h
same,half-life,"[1]; human, plasma, po, 15 mg, t1/2, Cohort 1, 15.0 mg QD oral, Day 14, Median",15.3 h
same,Cmax,"[1]; human, plasma, po, 30 mg, Cmax, Cohort 2, 30.0 mg QD oral, Day 1, Geometric Mean",120 ng/mL
same,Vd/F,"[1]; human, plasma, po, 30 mg, Cohort 2, 30.0 mg QD oral, Day 14, Geo Mean",551 L
same,Vd/F,"[1]; human, plasma, po, 30 mg, Cohort 2, 30.0 mg QD oral, Day 14, Mean",570 L
same,Vd/F,"[1]; human, plasma, po, 30 mg, Cohort 2, 30.0 mg QD oral, Day 14, Median",514 L
same,half-life,"[1]; human, plasma, po, 30 mg, t1/2, Cohort 2, 30.0 mg QD oral, Day 14, Geo Mean",12.6 h
same,half-life,"[1]; human, plasma, po, 30 mg, t1/2, Cohort 2, 30.0 mg QD oral, Day 14, Mean",12.7 ± 1.23 h
same,half-life,"[1]; human, plasma, po, 30 mg, t1/2, Cohort 2, 30.0 mg QD oral, Day 14, Median",12.9 h
same,Vd/F,"[1]; human, plasma, po, 60 mg, Cohort 3, 60.0 mg QD oral, Day 14, Geo Mean",533 L
same,Vd/F,"[1]; human, plasma, po, 60 mg, Cohort 3, 60.0 mg QD oral, Day 14, Mean",574 L
same,Vd/F,"[1]; human, plasma, po, 60 mg, Cohort 3, 60.0 mg QD oral, Day 14, Median",531 L
same,half-life,"[1]; human, plasma, po, 60 mg, t1/2, Cohort 3, 60.0 mg QD oral, Day 14, Geo Mean",12.2 h
same,half-life,"[1]; human, plasma, po, 60 mg, t1/2, Cohort 3, 60.0 mg QD oral, Day 14, Mean",12.2 ± 1.32 h
same,half-life,"[1]; human, plasma, po, 60 mg, t1/2, Cohort 3, 60.0 mg QD oral, Day 14, Median",12.4 h
same,half-life,"[1]; human, plasma, po, mean t1/2, steady state, across Cohorts 1-3 (15.0-60.0 mg QD oral)",12.2 to 14.8 h
same,Tmax,[2]; human,"1.00 (0.75, 1.77) h"
same,Cmax higher under fasting conditions compared to fed conditions,"[2]; human, 30 mg",1.5-1.6 times
same,"t½, fasted versus fed conditions",[2],similar
same,tolerability / Adverse Event profile,[3],well tolerated with no change in Adverse Event profile
same,least squares Mean Change from Baseline in HAM-D score,"[4]; 45 mg Cohort, Day 7",−17.8
same,least squares Mean Change from Baseline in HAM-D score,"[4]; 45 mg Cohort, Day 15",−13.2
same,patients who met the HAM-D Response or Remission criterion,"[4]; 45 mg Cohort, once daily at bedtime, Day 7",11 of the 13
same,patients who met the HAM-D Response or Remission criteria,"[4]; 45 mg Cohort, once daily at bedtime, Day 15",8 of the 13
same,least squares Mean Change from Baseline in HAM-D score,"[4]; 80 mg Cohort, Day 7",−20.0
same,least squares Mean Change from Baseline in HAM-D score,"[4]; 80 mg Cohort, Day 15",−16.0
same,patients who met the HAM-D Response or Remission criteria,"[4]; 80 mg Cohort, once daily at bedtime, Day 15",6 of the 7
same,Efficacy by background antidepressant,[4]; as monotherapy and in combination with another antidepressant,Efficacy was observed
same,symptoms of moderate to severe MDD,[4]; daily dose of 45 mg or 80 mg,exhibited reduced symptoms of moderate to severe MDD
same,half-life,[5]; Fasted (Day 1),11.2 h
same,half-life,[5]; Fed (Day 1 as printed),11.3 h
same,"dose dependence of Cavg, AUCss and AUCinf",[6],proportional increase
same,dose dependence of Cmax and AUC parameters at steady state,[6]; po,approximate proportional increase
same,steady state clearance,[6]; po,approximately 31 L/h
same,accumulation factor of the dosing interval (ratio of AUCDay 14/AUCDay 1),"[6]; po, 15 mg",approximately 1.25
same,Cmax,"[6]; po, 30 mg",156.00 ng/mL
same,accumulation factor of the dosing interval (ratio of AUCDay 14/AUCDay 1),"[6]; po, 30 mg",approximately 1.25
same,Tmax,"[6]; po, 60 mg",1.00 h
same,accumulation factor of the dosing interval (ratio of AUCDay 14/AUCDay 1),"[6]; po, 60 mg",0.89
same,Tmax,clinical,≤ 2 h
same,AUC,"clinical; po, 15 mg, AUC0-tau",362 ng·h/mL
same,AUC(0-inf),"clinical; po, 15 mg",600 ng·h/mL
same,AUC,"clinical; po, 15 mg, AUCss",492 ng·h/mL
same,Cmax,"clinical; po, 15 mg",56 ng/mL
same,Cmax,"clinical; po, 15 mg, ss",65 ng/mL
same,Tmax,"clinical; po, 15 mg",1.03 h
same,Tmax,"clinical; po, 15 mg, ss",1.07 h
same,AUC,"clinical; po, 30 mg, AUC0-tau",842 ng·h/mL
same,AUC(0-inf),"clinical; po, 30 mg",1230 ng·h/mL
same,AUC,"clinical; po, 30 mg, AUCss",1020 ng·h/mL
same,Cmax,"clinical; po, 30 mg",133 ng/mL
same,Cmax,"clinical; po, 30 mg, ss",164 ng/mL
same,Tmax,"clinical; po, 30 mg, ss",0.964 h
same,AUC,"clinical; po, 60 mg, AUC0-tau",2340 ng·h/mL
same,AUC(0-inf),"clinical; po, 60 mg",2370 ng·h/mL
same,AUC,"clinical; po, 60 mg, AUCss",2080 ng·h/mL
same,Cmax,"clinical; po, 60 mg",364 ng/mL
same,Cmax,"clinical; po, 60 mg, ss",355 ng/mL
same,Tmax,"clinical; po, 60 mg",1.14 h
same,Tmax,"clinical; po, 60 mg, ss",0.969 h

# From patent US20200323823A1, “METHODS FOR THE TREATMENT OF DEPRESSION” (Praxis Precision Medicines, Inc., priority 2018, published 2020)
